Activity calls are given as the source filed them. The rule behind the calls is not given here. Residues, ends and D or L forms follow the SMILES beside them. *: point of attachment. NHNH2 = NN*
test: Malondialdehyde scavenging activity in iron/ascorbate-induced oxidation in PC liposomes at 10 mM by TBARS test; format: functional

SMILES	Activity
NNC(=O)[C@H](Cc1c[nH]cn1)NC(=O)[C@@H](N)Cc1ccccc1 (H-Phe-His-NHNH2)	Active
NCC(=O)NN	Active
CC(C)C[C@H](N)C(=O)N[C@@H](Cc1c[nH]cn1)C(=O)NN (H-Leu-His-NHNH2)	Active
NNC(=O)[C@H](Cc1c[nH]cn1)NC(=O)OCc1ccccc1	Active
CC(C)CCCC(C)[C@H]1CCC2C3CC=C4C[C@@H](OC(=O)N[C@@H](Cc5c[nH]cn5)C(=O)NN)CC[C@]4(C)C3CC[C@@]21C (some centres undefined)	Active
NNC(=O)[C@@H](N)Cc1c[nH]cn1	Active
NNC(=O)CNC(=O)OCc1ccccc1	Active
NCCC(=O)N[C@@H](Cc1c[nH]cn1)C(=O)O	Active
Cc1c(C)c2c(c(C)c1OC(=O)CCC(=O)N[C@@H](Cc1c[nH]cn1)C(=O)NN)CCC(C)(CCCC(C)CCCC(C)CCCC(C)C)O2 (some centres undefined)	Active

Source: ChEMBL document CHEMBL1149645, “Malondialdehyde scavenging and aldose-derived Schiff bases' transglycation properties of synthetic histidyl-hydrazide carnosine analogs” (Bioorg Med Chem, 2007)
